Experimental data from PMC11317636, “Convergent evolution in toxin detection and resistance provides evidence for conserved bacterial–fungal interactions” (Proceedings of the National Academy of Sciences of the …, 2024).

Experiments:
GliT = target: T1, GliT (Aspergillus fumigatus, UniProt E9RAH5); type: biochemical; conditions: 40 µM TCEP-reduced substrate, 0.2 µM enzyme, 20 mM Tris-HCl pH 7.0, 100 mM NaCl, room temperature, 15 min
T1 construct: one replicate with C-terminal mCherry fusion purified from A. fumigatus (A1160 background)
T1 sequence (E9RAH5 whole entry, the tested form may be a part): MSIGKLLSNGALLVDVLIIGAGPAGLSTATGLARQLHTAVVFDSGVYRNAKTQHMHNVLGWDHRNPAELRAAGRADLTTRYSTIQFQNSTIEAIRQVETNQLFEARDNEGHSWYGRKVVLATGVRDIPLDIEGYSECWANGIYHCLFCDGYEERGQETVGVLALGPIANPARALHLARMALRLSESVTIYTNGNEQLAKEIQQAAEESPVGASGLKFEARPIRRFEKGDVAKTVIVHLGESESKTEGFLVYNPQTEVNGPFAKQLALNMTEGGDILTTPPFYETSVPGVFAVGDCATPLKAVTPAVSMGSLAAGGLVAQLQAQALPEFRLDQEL

DnoP (PA4170) = target: T2, DnoP (PA4170) (Pseudomonas aeruginosa, UniProt A0A0H2ZG54); assay: DTNB assay of residual free thiols at […] nm; type: biochemical; conditions: 40 µM TCEP-reduced substrate, 0.2 µM enzyme, 20 mM Tris-HCl pH 7.0, 100 mM NaCl, room temperature, 15 min
T2 construct: gene PA14_09950; one replicate with C-terminal mCherry fusion purified from A. fumigatus
T2 sequence (A0A0H2ZG54 entry or part of it): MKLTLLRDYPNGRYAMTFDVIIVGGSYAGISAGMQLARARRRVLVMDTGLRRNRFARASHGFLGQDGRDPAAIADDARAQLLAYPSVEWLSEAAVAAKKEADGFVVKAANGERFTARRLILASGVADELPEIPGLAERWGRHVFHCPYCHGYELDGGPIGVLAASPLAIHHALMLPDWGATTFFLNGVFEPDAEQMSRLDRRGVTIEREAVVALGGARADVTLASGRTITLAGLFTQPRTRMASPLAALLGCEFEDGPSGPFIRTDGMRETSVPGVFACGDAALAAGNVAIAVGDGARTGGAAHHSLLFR

For `CN1C(=O)C2(S)CC3=CC=CC(O)C3N2C(=O)C1(S)CO` (centres unmarked) [compound 1, reduced gliotoxin], the “DTNB assay of residual free thiols at 412 nm” value (GliT) was “Recombinant PA4170 and GliT catalyzed disulfide oxidation of both gliotoxin and holomycin” and the “DTNB assay of residual free thiols at 412 nm” value (DnoP (PA4170)) was “Recombinant PA4170 and GliT catalyzed disulfide oxidation of both gliotoxin and holomycin”.
